l = locked nucleic acid (LNA); d = 2'-deoxy (DNA)

These results are taken from US11105794B2, “In vitro nephrotoxicity screening assay” (Hoffmann-La Roche Inc., priority 2016, dated 2021).

This series has as its system PTEC-TERT1 cells. The series is described as follows: Morphological changes of PTEC-TERT1 cells upon oligonucleotide treatment. The class given is cell-based, human. The following applies: 100 μM oligonucleotide, 7 days, bright field microscopy, vs saline. The protocol:
PTEC-TERT1 cells were cultures as described in the “Materials and methods” section. To mimic the physiological exposure of renal tubules to circulating naked oligonucleotide (i.e. without assistance of delivery technology, herein termed gymnosis or gymnotic delivery), confluent monolayers of PTEC-TERT1 cells were exposed to an aqueous solution of 100 μM oligonucleotide. The medium was replaced every three days including 100 μM fresh oligonucleotide in the fresh medium.
After 7 days of treatment the morphological alterations in the treated cell cultures were investigated under bright field microscopy.

Consider “GCtgtgtgagcttGG (antisense GCTGTGTGAGCTTGG; sugars from the 5' end l2 d11 l2, backbone and methylation of C not given here) [Compound 4-1]”, for which the morphological changes result is “adopted a flattened and stable appearance”.
As for “TGCtacaaaacCCA (antisense TGCTACAAAACCCA; sugars from the 5' end l3 d8 l3, backbone and methylation of C not given here) [Compound 3-1]”, the entry is “formed irregular domes and vacuoles”.
